According to ChEMBL document CHEMBL1201862, “PubChem BioAssay data set” (2004):
Values belong to the molecule of their own block, whether it stands above or below them. Calls of active or inactive are those of the source.

Legend:
Caspase-3 [1] = target: T1, Caspase-3 (Homo sapiens, UniProt P42574); assay: caspase-3 inhibitors as off-family protease, SAR follow-up, selectivity assay for SENP protease inhibitor project, biochemical, luminescence, set 2 (AID 588599); type: functional
T1 sequence (P42574 whole entry): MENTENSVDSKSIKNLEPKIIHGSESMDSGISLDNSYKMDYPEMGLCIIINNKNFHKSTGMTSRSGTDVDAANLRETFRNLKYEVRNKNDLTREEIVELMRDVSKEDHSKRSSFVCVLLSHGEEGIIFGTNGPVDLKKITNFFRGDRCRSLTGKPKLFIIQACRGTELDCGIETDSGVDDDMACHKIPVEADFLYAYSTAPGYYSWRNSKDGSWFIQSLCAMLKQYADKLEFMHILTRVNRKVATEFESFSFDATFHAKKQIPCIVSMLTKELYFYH

[2] = target: T2, Sentrin-specific protease 6 (Homo sapiens, UniProt Q9GZR1); assay: SENP6 protease inhibitors, SAR follow-up, biochemical, luminescence, set 2 (AID 588598); type: functional
T2 sequence (Q9GZR1 whole entry): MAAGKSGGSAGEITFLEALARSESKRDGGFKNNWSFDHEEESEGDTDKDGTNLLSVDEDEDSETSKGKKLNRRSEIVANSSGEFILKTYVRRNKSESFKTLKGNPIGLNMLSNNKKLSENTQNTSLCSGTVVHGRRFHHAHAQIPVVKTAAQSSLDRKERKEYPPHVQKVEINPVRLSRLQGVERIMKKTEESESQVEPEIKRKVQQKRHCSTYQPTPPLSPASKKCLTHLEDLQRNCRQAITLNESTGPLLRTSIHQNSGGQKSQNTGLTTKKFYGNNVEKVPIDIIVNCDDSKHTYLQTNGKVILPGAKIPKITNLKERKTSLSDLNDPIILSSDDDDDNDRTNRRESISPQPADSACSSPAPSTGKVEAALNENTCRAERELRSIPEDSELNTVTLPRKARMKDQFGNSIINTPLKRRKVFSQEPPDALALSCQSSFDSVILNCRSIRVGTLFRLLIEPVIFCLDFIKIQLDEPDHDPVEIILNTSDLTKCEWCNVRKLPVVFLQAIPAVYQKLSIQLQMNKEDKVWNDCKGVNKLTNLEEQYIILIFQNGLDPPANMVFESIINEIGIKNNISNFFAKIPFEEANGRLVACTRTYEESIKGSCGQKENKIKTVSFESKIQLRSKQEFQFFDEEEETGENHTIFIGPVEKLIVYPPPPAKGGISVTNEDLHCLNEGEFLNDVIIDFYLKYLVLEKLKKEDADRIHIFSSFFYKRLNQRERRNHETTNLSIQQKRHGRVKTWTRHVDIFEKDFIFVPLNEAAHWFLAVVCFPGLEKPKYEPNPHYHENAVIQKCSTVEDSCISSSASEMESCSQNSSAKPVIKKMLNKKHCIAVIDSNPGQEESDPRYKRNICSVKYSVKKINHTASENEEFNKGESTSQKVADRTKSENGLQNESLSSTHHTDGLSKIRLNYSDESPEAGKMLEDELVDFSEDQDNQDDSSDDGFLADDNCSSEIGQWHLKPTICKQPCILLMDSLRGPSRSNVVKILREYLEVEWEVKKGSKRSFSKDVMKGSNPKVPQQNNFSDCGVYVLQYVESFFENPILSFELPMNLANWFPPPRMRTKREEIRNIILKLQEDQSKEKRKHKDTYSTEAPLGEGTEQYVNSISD

[3] = cytotoxicity toward NIH3T3 fibroblasts, dose response, counter-screen, cell-based, ATP luminescence, mouse fibroblasts (AID 2010); type: functional;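 note: cells exposed to compound for about 90 hours before reading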
[4] = target: T3, Sentrin-specific protease 7 (Homo sapiens, UniProt Q9BQF6); assay: SENP7 protease inhibitors, SAR follow-up, biochemical, luminescence, set 2 (AID 588600); type: functional
T3 sequence (Q9BQF6 whole entry): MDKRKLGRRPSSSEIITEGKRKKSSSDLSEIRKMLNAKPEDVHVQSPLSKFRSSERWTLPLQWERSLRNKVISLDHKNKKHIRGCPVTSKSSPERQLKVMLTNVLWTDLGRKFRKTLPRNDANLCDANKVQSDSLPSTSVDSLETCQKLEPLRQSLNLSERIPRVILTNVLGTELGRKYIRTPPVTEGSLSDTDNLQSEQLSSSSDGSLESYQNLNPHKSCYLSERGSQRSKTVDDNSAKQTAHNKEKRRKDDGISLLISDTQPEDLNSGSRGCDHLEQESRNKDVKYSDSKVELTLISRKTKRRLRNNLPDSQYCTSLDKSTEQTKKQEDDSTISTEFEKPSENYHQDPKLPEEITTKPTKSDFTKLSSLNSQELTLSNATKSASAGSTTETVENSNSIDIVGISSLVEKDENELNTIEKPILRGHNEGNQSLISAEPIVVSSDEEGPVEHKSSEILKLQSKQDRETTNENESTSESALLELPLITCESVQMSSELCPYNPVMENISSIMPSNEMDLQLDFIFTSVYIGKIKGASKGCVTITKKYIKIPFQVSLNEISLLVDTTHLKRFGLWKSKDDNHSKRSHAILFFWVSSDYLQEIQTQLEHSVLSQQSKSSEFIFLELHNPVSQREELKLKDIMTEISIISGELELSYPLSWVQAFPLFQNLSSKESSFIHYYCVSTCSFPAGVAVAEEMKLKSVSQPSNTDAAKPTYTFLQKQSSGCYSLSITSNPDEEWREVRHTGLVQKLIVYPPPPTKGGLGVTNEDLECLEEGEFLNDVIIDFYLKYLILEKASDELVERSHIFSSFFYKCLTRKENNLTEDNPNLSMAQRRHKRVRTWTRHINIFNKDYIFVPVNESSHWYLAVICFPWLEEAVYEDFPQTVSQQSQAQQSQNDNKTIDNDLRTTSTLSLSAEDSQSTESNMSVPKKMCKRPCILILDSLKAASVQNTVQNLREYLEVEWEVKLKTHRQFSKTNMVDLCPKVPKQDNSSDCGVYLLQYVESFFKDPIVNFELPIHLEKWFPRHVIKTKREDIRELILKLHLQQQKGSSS

[5] = target: T4, Sentrin-specific protease 8 (Homo sapiens, UniProt Q96LD8); assay: SENP8 protease inhibitors, SAR follow-up, biochemical, luminescence (AID 504501); type: functional
T4 sequence (Q96LD8 whole entry): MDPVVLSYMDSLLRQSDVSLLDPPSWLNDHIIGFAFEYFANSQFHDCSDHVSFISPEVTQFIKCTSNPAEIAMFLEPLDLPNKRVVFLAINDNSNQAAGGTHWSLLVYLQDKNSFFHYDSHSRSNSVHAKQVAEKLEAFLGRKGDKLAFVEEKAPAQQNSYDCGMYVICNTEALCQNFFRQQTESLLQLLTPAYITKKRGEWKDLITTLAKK

[6] = target: T4, Sentrin-specific protease 8; assay: SENP8 protease inhibitors, SAR follow-up, biochemical, luminescence, set 2 (AID 588601); type: functional
[7] = target: T3, Sentrin-specific protease 7; assay: SENP7 protease inhibitors, SAR follow-up, biochemical, luminescence (AID 504497); type: functional
[8] = inhibitors of intracellular T. cruzi replication, confirmation, NIH3T3 host cells, beta-gal luminescence (AID 2044); type: functional, cell-based;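 note: intracellular parasites grown in NIH/3T3 mouse fibroblasts as host cells; luminescent beta-galactosidase reporter signal from transgenic T. cruzi replicating inside host cells; inhibitors lower the luminescence signal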
Caspase-3 [9] = target: T1, Caspase-3; assay: SAR Analysis of small molecule inhibitors of Sentrin-specific proteases (SENPs) using a Caspase-3 Selectivity assay. [Related pubchem assays (depositor defined):AID2540, AID2599, AID434973, AID489001]; type: functional
[10] = target: T2, Sentrin-specific protease 6; assay: SAR Analysis of small molecule inhibitors of Sentrin-specific protease 6 (SENP6) using a Luminescent assay. [Related pubchem assays (depositor defined):AID2582, AID2599]; type: functional
P388/ADR = assay: cells; type: functional; details: Mus musculus
SN12K1 = assay: cells; type: functional; details: Homo sapiens
P388 = assay: cells; type: functional; details: Mus musculus
Aurora kinase A = Aurora kinase A (Homo sapiens, UniProt O14965); type: functional;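 note: value from the Navigating the Kinome kinase panel profiling, panel entry STK6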
Aurora kinase B = Aurora kinase B (Homo sapiens, UniProt Q96GD4); type: functional
[11] = target: T5, Apoptotic protease-activating factor 1 (Homo sapiens, UniProt O14727); assay: SAR analysis of small molecule Activators of Apaf-1 in a Fluorescent assay.; type: functional; details: read-out: EC50_Mean;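 note: caspase-3 cleavage of fluorogenic Rh110 DEVD substrate downstream of apoptosome activation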
T5 sequence (O14727 whole entry): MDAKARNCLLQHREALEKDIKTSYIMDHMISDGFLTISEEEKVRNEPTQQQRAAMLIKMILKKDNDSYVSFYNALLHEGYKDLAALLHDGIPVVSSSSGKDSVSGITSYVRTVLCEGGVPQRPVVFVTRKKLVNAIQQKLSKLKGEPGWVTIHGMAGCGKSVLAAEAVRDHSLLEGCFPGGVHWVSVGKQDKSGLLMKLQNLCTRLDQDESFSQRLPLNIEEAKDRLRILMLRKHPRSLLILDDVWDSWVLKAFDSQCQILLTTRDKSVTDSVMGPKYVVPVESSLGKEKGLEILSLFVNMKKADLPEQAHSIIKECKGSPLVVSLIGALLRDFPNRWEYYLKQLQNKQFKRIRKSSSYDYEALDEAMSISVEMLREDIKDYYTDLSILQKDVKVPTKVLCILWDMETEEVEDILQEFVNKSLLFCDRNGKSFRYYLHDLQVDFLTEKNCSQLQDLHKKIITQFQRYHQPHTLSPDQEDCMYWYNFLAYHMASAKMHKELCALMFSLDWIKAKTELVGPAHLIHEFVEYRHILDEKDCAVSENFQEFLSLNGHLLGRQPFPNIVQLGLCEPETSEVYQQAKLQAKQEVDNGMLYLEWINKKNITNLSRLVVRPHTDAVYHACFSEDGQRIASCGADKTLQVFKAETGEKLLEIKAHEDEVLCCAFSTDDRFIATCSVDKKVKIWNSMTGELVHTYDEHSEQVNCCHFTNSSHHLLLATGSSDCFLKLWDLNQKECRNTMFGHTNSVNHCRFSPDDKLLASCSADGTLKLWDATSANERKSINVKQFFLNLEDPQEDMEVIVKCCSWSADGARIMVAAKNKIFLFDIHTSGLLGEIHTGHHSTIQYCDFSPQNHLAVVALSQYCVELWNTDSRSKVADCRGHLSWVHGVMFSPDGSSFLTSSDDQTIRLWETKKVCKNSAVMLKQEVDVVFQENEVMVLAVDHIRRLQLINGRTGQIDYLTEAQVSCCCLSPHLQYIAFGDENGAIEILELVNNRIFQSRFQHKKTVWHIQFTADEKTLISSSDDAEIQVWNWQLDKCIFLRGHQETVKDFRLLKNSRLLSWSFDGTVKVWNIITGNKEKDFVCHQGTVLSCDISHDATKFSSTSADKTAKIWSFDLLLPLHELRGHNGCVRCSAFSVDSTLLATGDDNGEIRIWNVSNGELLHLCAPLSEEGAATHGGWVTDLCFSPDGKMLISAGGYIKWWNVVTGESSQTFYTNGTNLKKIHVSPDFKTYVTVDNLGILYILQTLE

Aurora kinase B, sequence (Q96GD4 whole entry): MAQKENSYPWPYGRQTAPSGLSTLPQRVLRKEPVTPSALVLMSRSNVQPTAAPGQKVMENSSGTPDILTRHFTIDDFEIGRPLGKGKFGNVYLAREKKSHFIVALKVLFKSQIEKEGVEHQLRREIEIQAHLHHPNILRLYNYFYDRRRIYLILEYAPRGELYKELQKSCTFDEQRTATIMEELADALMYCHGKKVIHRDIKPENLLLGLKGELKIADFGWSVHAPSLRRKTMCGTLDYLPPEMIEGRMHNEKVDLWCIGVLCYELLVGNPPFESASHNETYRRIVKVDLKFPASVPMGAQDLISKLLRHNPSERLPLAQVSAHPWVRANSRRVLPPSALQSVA
Aurora kinase A, sequence (O14965 whole entry): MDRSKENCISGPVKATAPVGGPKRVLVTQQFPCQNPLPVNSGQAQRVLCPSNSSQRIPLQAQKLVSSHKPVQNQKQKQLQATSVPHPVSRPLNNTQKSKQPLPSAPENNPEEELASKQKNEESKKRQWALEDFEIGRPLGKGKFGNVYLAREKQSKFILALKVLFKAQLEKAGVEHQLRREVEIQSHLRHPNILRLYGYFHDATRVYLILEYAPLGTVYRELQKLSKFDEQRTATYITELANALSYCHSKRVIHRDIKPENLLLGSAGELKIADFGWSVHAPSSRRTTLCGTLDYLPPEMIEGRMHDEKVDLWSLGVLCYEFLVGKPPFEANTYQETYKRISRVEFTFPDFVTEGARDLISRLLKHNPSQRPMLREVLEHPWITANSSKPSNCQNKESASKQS

SMILES: O=C(Nc1nc2ccc(Cl)cc2s1)C1CC1
IC50 (Caspase-3 [1]): 28.9 µM (active)
IC50 [2]: 24.6 µM (active)
EC50 [3]: > 16 µM (not active)
IC50 [4]: 7.46 µM (active)
IC50 [5]: > 99 µM (inactive)
IC50 [6]: 5.97 µM (active)
IC50 [7]: 5.9 µM (active)
EC50 [8]: 0.119 µM (active)
IC50 (Caspase-3 [9]): 25 µM (active)
IC50 [10]: > 99 µM (inactive)

SMILES: CCCCc1ccc2nc(NC(=O)c3sccc3C)sc2c1
IC50 [5]: 0.672 µM (active)
IC50 [7]: 0.854 µM (active)
IC50 (Caspase-3 [9]): 0.541 µM (active)
IC50 [10]: 0.742 µM (active)

SMILES: COC(=O)C[C@](O)(CCC(C)(C)O)C(=O)O[C@@H]1C(OC)=C[C@]23CCCN2CCc2cc4c(cc2[C@H]13)OCO4 [HARRINGTONINE]
GI50 (P388/ADR): 0.738 µM (active)
GI50 (SN12K1): 0.0661 µM (active)
GI50 (P388): 0.0252 µM (active)

SMILES: COC1OCC(O)C(NC(=O)N(C)N=O)C1O (configuration not stated)
GI50 (P388/ADR): > 100 µM (inactive)
GI50 (SN12K1): > 100 µM (inactive)
GI50 (P388): > 100 µM (inactive)

Further lines, with some results ahead:

Ki (Aurora kinase A): 0.00398 µM (active)
Ki (Aurora kinase B): 0.00316 µM (active)
SMILES: COCCOC1CCC(n2nc(-c3ccc(Nc4nc5cc(Br)cc(C)c5o4)cc3)c3c(N)ncnc32)CC1 (configuration not stated)

EC50 [11]: > 100 µM (inactive)
SMILES: CC(C)(C)c1ccc(C(=O)NC(CCc2ccccc2)CC(=O)O)cc1 (configuration not stated)

IC50 (Caspase-3 [1]): > 99 µM (inactive)
IC50 [2]: > 99 µM (inactive)
IC50 [4]: > 99 µM (inactive)
SMILES: Cc1ccc(N2CC(NC(=O)C(=O)c3c(C)[nH]c4ccccc34)CC2=O)cc1 (configuration not stated)
IC50 [6]: > 99 µM (inactive)
